35 compounds from patent US12528790B2, “Amide derivative having antiviral activity” (Shionogi & Co., Ltd., priority 2020, dated 2026) can be followed below.

Like-named read-outs stand apart in the source and are kept apart here.

Experiment [1] concerns RSV B (Wash/18537 strain). The experiment in a line: In vitro CPE (CytoPathic Effect) inhibition effect evaluation test, RSV type B. The format is cell-based. The method, then: The test sample is diluted in advance to an appropriate concentration with DMSO, and 3-fold series of serial dilutions were prepared on a 384-well plate (0.32 μL/well). HEp-2 cells (CCL-23; ATCC) adjusted at appropriate number (2.4×10^5 cells/mL) in 2% FBS E-MEM (prepared by adding kanamycin and FBS to Eagle's Minimum Essential Medium; Invitrogen) were added at 12.5 μL/well to the 384-well plate previously aliquoted with the test samples. The RSV A2 strain was diluted to an appropriate concentration in a culture medium and added to the 384-well plate containing the test sample at 12.5 μL/well. The culture medium was added additionally to the 384-well plate, and the test was started with 50 μL/well. Control wells were prepared with only virus-free culture medium. The plate was incubated in a 5% CO2 incubator at 37° C. for 4 days, and the plate was then placed at room temperature for 30 minutes. CellTiter-Glo (registered trademark) 2.0 assay (Promega) was added at 15 μL/well, mixed for 30 seconds, and the plate was placed for approximately 1 hour. The luminescent signal was then measured by EnVision (PerkinElmer). The inhibitory effect of the test agents on RSV-induced CPE was calculated as 0% and 100% inhibition rate for each sample concentration based on the level of remaining viable cells by CellTiter-Glo (registered trademark) 2.0, with the EC50 value for each compound calculated by nonlinear regression as the concentration that inhibits RSV-induced CPE by 50%. In the case of evaluation against RSV type B, RSV B (Wash/18537 strain) was infected in the same manner as the type A, cultured for 5 days, and quantitated in the same manner as for the A2 strain.

The test system of experiment [2] is RSV A2 strain. The experiment in a line: In vitro CPE (CytoPathic Effect) inhibition effect evaluation test, RSV type A. The format is cell-based. The method in brief:
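EC50 is the concentration giving 50% inhibition of virus-induced cytopathic effect, fitted by nonlinear regression from CellTiter-Glo 2.0 viability. Compounds in 3-fold series were co-incubated at 37 °C with HEp-2 cells and RSV: A2 strain for 4 days, B (Wash/18537) for 5 days; uninfected wells served as control.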

Where [3] appears, read: human respiratory syncytial virus, inhibitory effect against RSV type B, CPE inhibition, read-out: EC50.
The mark [4] stands for this setting: human respiratory syncytial virus, inhibitory effect against RSV type A (RSV A2 strain), HEp-2 cells, CPE inhibition, read-out: EC50.
Where [5] appears, read: inhibitory effect against RSV type B, CPE inhibition, read-out: EC50.
[6] abbreviates: inhibitory effect against RSV type A (RSV A2 strain), HEp-2 cells, CPE inhibition, read-out: EC50.

Usually EC50 stands for the concentration giving half of the maximal effect. Turning to `O=C(NC1(C(=O)O)C2CC3CC(C2)CC1C3)c1cnc(N2CC3(CCCC3)c3cc(OC4CCN(C5CC(F)(F)C5)CC4)ccc32)nc1C(F)(F)F` (stereo not drawn) [Compound I-502], the EC50 in experiment [1] (setting [3]) is 10 to 100 nM; in experiment [2] (setting [4]) it was < 10 nM.

Regarding `COC[C@@H](C)n1cc(-c2ncc(C(=O)NC3(C(=O)O)C4CC5CC(C4)CC3C5)c(C(F)(F)F)n2)c2ccc(O[C@H]3CC[C@@H](N4CC(F)(F)C4)CC3)cc21` (stereo partly drawn) [Compound I-585], the EC50 in experiment [1] (setting [3]) and in experiment [2] (setting [4]) was < 10 nM throughout.

For the compound `O=C(NC1(C(=O)O)C2CC3CC(C2)CC1C3)c1cnc(N2CC3(CCCCC3)c3cc(OC4CCN(CC(F)(F)F)CC4)ccc32)nc1C(F)(F)F` (stereo not drawn) [Compound I-382], the EC50 in experiment [1] (setting [3]) is 10 to 100 nM; in experiment [2] (setting [4]), < 10 nM.

As for `NC(=O)C1(NC(=O)c2cnc(N3CC4(CCOCC4)c4cc(OC5CCN(c6ncccn6)CC5)ccc43)nc2C(F)(F)F)C2CC3CC(C2)CC1C3` (stereo not drawn) [Compound I-135], the EC50 in experiment [1] (setting [3]) is 10 to 100 nM; in experiment [2] (setting [4]), < 10 nM.

Regarding `O=C(NC1(C(=O)O)C2CC3CC(C2)CC1C3)c1cnc(-c2cn(C3CCC(F)(F)CC3)c3cc(O[C@H]4CC[C@@H](N5CC(F)(F)C5)CC4)ccc23)nc1C(F)(F)F` (stereo partly drawn) [Compound I-415], the EC50 in experiment [1] (setting [3]) and in experiment [2] (setting [4]) was < 10 nM each time.

As to `O=C(NC1(C(=O)O)C2CC3CC(C2)CC1C3)c1cnc(N2CC3(CCOCC3)c3cc(OC4CCN(CC(F)(F)F)CC4)ccc32)nc1C(F)(F)F` (stereo not drawn) [Compound I-384], the EC50 in experiment [1] (setting [3]) and in experiment [2] (setting [4]) was < 10 nM in each case.

`CN(C)CCCc1nc(N2CCc3cc(OCCC4CCOCC4)ccc32)nc(C(F)(F)F)c1C(=O)NC1(C(=O)O)C2CC3CC(C2)CC1C3` (stereo not drawn) [Compound I-160]: the EC50 in experiment [1] (setting [3]) was 100 to 5000 nM; in experiment [2] (setting [4]) it was 10 to 100 nM.

`O=C(NC1(C(=O)O)C2CC3CC(C2)CC1C3)c1cnc(-c2cn(C3CC3)c3cc(O[C@H]4CC[C@H](N5CC(F)(F)C5)CC4)ccc23)nc1C(F)(F)F` (stereo partly drawn) [Compound I-497]: the EC50 in experiment [1] (setting [3]) and in experiment [2] (setting [4]) was < 10 nM in each case.

As to `O=C(NC1(C(=O)O)C2CC3CC(C2)CC1C3)c1cnc(N2CC3(CCOC3)c3cc(OCC(F)(F)F)ccc32)nc1C(F)(F)F` (racemic) [Compound I-466], the EC50 was 10 to 100 nM in experiment [1] (setting [3]) and < 10 nM in experiment [2] (setting [4]).

Consider `C/C(=N\OC1CC(F)(F)C1)c1ccc2c(c1)C1(CCCCC1)CN2c1ncc(C(=O)NC2(C(=O)O)C3CC4CC(C3)CC2C4)c(C(F)(F)F)n1` (single isomer, unassigned) [Compound I-477], for which the EC50 lay in the range of 100 to 5000 nM in experiment [1] (setting [3]) and 10 to 100 nM in experiment [2] (setting [4]).

`CC(F)(F)CN1CCC(Oc2ccc3c(-c4ncc(C(=O)NC5(C(=O)O)C6CC7CC(C6)CC5C7)c(C(F)(F)F)n4)cn(C4CCC(F)(F)CC4)c3c2)CC1` (stereo not drawn) [Compound I-422]: the EC50 in experiment [1] (setting [3]) and in experiment [2] (setting [4]) was < 10 nM throughout.

For the compound `CC(F)(F)c1nc(-c2cn(C3CCC(F)(F)CC3)c3cc(O[C@H]4CC[C@@H](N5CC(F)(F)C5)CC4)ccc23)ncc1C(=O)NC1(C(=O)O)C2CC3CC(C2)CC1C3` (stereo partly drawn) [Compound I-546], the EC50 in experiment [1] (setting [3]) and in experiment [2] (setting [4]) was < 10 nM throughout.

Turning to `CC(F)(F)c1nc(N2CC3(CCOCC3)c3cc(-n4ncc5c4CCN(CC(F)(F)F)C5)ncc32)ncc1C(=O)NC1(C(=O)O)C2CC3CC(C2)CC1C3` (stereo not drawn) [Compound I-602], the EC50 in experiment [1] (setting [3]) and in experiment [2] (setting [4]) was < 10 nM throughout.

Regarding `CC(F)(F)c1nc(N2CC3(CCOCC3)c3cc(O[C@H]4CC[C@H](NCC(F)(F)F)CC4)ccc32)ncc1C(=O)NC1(C(=O)O)C2CC3CC(C2)CC1C3` (stereo partly drawn) [Compound I-552], the EC50 in experiment [1] (setting [3]) and in experiment [2] (setting [4]) was < 10 nM each time.

Turning to `O=C(NC1(C(=O)O)C2CC3CC(C2)CC1C3)c1cnc(N2CCc3cc(OC4CCN(c5ncccn5)CC4)ccc32)nc1C(F)(F)F` (stereo not drawn) [Compound I-45], the EC50 in experiment [1] (setting [5]) and in experiment [2] (setting [6]) was < 10 nM throughout.

Consider `O=C(NC1(C(=O)O)C2CC3CC(C2)CC1C3)c1cnc(N2CC3(CCCCC3)c3cc(O[C@H]4CC[C@@H](N5CC(F)(F)C5)CC4)ccc32)nc1C(F)(F)F` (stereo partly drawn) [Compound I-500], for which the concentration for a half-maximal effect (EC50) in experiment [1] (setting [3]) and in experiment [2] (setting [4]) was < 10 nM each time.

Turning to `COC[C@H](C)n1cc(-c2ncc(C(=O)NC3(C(=O)O)C4CC5CC(C4)CC3C5)c(C(F)(F)F)n2)c2ccc(O[C@H]3CC[C@H](N4CC(F)(F)C4)CC3)cc21` (stereo partly drawn) [Compound I-508], the EC50 in experiment [1] (setting [3]) and in experiment [2] (setting [4]) was < 10 nM throughout.

As for `O=C(NC1(C(=O)O)C2CC3CC(C2)CC1C3)c1cnc(-c2cn(C3CCC(F)(F)CC3)c3cc(OC4CCN(c5ncccn5)CC4)ncc23)nc1C(F)(F)F` (stereo not drawn) [Compound I-268], the EC50 is 4.3 nM in experiment [1] (human respiratory syncytial virus, HEp-2, 120 h, HEp-2 cells, RSV B (Wash/18537 strain), 5 days, CellTiter-Glo, read-out: EC50, inhibitory effect against RSV type B (CPE inhibition)) and 1.4 nM in experiment [2] (human respiratory syncytial virus, HEp-2, 96 h, read-out: EC50, inhibitory effect against RSV type A (CPE inhibition)).

For `CC(F)(F)c1nc(N2CC3(CCCCC3)c3cc(OC4CCC(N5CCC(F)(F)C5)CC4)ccc32)ncc1C(=O)NC1(C(=O)O)C2CC3CC(C2)CC1C3` (stereo not drawn) [Compound I-540], the EC50 is 10 to 100 nM in experiment [1] (setting [5]) and < 10 nM in experiment [2] (setting [6]).

Consider `O=C(NC1(C(=O)O)C2CC3CC(C2)CC1C3)c1cnc(N2CC3(CCOCC3)c3cc(CC4CCN(c5ncccn5)CC4)ccc32)nc1C(F)(F)F` (stereo not drawn) [Compound I-119], for which, in experiment [2] (setting [4]), the EC50 is < 10 nM.

Regarding `O=C(NC1(C(=O)O)C2CC3CC(C2)CC1C3)c1cnc(-c2cn(C3CCC(F)(F)CC3)c3cc(OCCN4CC(F)(F)C4)ccc23)nc1C(F)(F)F` (stereo not drawn) [Compound I-426], in experiment [2] (setting [4]), the EC50 is < 10 nM.

`N#Cc1ccc(-n2cc(-c3ccc(C(=O)NC4(C(=O)O)C5CC6CC(C5)CC4C6)c(C(F)(F)F)n3)c3ccc(OC4CCN(c5ncccn5)CC4)cc32)cc1` (stereo not drawn) [Compound I-337]: the EC50 in experiment [2] (setting [6]) is < 10 nM.

On to `CNC(=O)C1CC1c1ccc2c(c1)CCN2c1ncc(C(=O)NC2(C(=O)O)C3CC4CC(C3)CC2C4)c(C(F)(F)F)n1` (racemic) [Compound I-216], for which the EC50 in experiment [2] (setting [4]) was in the range of 10 to 100 nM.

As for `CCC(F)(F)c1nc(N2CCc3cc(OCCC4CCOCC4)ccc32)ncc1C(=O)NC1(C(=O)O)C2CC3CC(C2)CC1C3` (stereo not drawn) [Compound I-178], in experiment [2] (setting [4]), the EC50 lay within 10 to 100 nM.

As for `O=C(NC1(C(=O)O)C2CC3CC(C2)CC1C3)c1cnc(-c2cn(C3CCC(F)(F)CC3)c3cc(OC4CCN(C5CCOC5)CC4)ccc23)nc1C(F)(F)F` (racemic) [Compound I-277], in experiment [2] (setting [4]), the EC50 was < 10 nM.

As to `O=C(NC1(C(=O)O)C2CC3CC(C2)CC1C3)c1cnc(N2CC3(CCS(=O)(=O)CC3)c3cc(OC4CCN(c5ncc(F)cn5)CC4)ccc32)nc1C(F)(F)F` (stereo not drawn) [Compound I-365], the EC50 in experiment [2] (setting [6]) is < 10 nM.

In the case of `CC1CC(Oc2ccc3c(-c4ncc(C(=O)NC5(C(=O)O)C6CC7CC(C6)CC5C7)c(C(F)(F)F)n4)cn(C4CCC(F)(F)CC4)c3c2)CCN1c1ncc(F)cn1` (single isomer, unassigned) [Compound I-386], the EC50 in experiment [2] (setting [6]) is < 10 nM.

Regarding `N#C[C@H]1CC[C@@H](n2cc(-c3ccc(C(=O)NC4(C(=O)O)C5CC6CC(C5)CC4C6)c(C(F)(F)F)n3)c3ccc(OC4CCN(c5ncccn5)CC4)cc32)CC1` (stereo partly drawn) [Compound I-186], in experiment [2] (setting [4]), the EC50 was < 10 nM.

Take `Cc1c(OC2CCN(c3ncccn3)CC2)ccc2c(-c3ncc(C(=O)NC4(C(=O)O)C5CC6CC(C5)CC4C6)c(C(F)(F)F)n3)cn(C3CCC(F)(F)CC3)c12` (stereo not drawn) [Compound I-282]: the EC50 in experiment [2] (setting [4]) was < 10 nM.

As to `CCc1nc(COc2ccc3c(c2)CCN3c2ncc(C(=O)NC3(C(=O)O)CCCCC3)c(C(F)(F)F)n2)cs1` [Compound I-59], in experiment [2] (setting [4]), the EC50 lay in the range of 10 to 100 nM.

Turning to `O=C(NC1(C(=O)O)C2CC3CC(C2)CC1C3)c1cnc(-c2cn(C3CCOC3)c3cc(OC4CCN(c5ncc(F)cn5)CC4)ccc23)nc1C(F)(F)F` (racemic) [Compound I-410], the EC50 in experiment [2] (setting [4]) was < 10 nM.

As for `CC1(C)CCCC(NC(=O)c2cnc(-c3cn(C4CCC(F)(F)CC4)c4cc(OC5CCN(c6ncccn6)CC5)ccc34)nc2C(F)(F)F)(C(=O)O)C1` (racemic) [Compound I-262], the concentration for a half-maximal effect (EC50) in experiment [2] (setting [4]) was < 10 nM.

As to `O=C(N[C@@]1(C(=O)O)[C@@H]2C[C@@H]3C[C@H]1C[C@@](F)(C3)C2)c1cnc(N2CC3(CCOCC3)c3cc(OC4CCN(c5ncccn5)CC4)ccc32)nc1C(F)(F)F` [Compound I-164], the concentration giving a half-maximal response (EC50) in experiment [2] (setting [4]) is < 10 nM.

As for `NC(=O)c1cc(C(=O)NC2(C(=O)O)C3CC4CC(C3)CC2C4)c(C(F)(F)F)nc1N1CCc2cc(OCCC3CCOCC3)ccc21` (stereo not drawn) [Compound I-156], in experiment [2] (setting [4]), the EC50 is 100 to 5000 nM.

`COc1ccc2c(c1)C1(CCOCC1)CN2c1ncc(C(=O)NC2(C(=O)O)CCCCC2)c(C(F)(F)F)n1` [Compound I-76]: the EC50 in experiment [2] (setting [4]) fell in the range of 10 to 100 nM.
